Drawing on patent US9464082B2, “Aryl and arylalkyl substituted pyrazolyl and pyrimidinyl tricyclic enones as antioxidant inflammation modulators” (AbbVie Inc., priority 2014, dated 2016), this text covers IC50 for 27 compounds.

pIC50: −log10 of the molar value.

For this experiment, the system named is IFNγ-Induced NO Production. Nature of the experiment: Nitric Oxide Suppression Assay (Suppression of IFNγ-Induced NO Production). It is filed as cell-based. To be noted: RAW264.7; RAW 264.7 mouse macrophage cells; 2 hour pre-treatment with compound (3 μM to 0.3 nM, 10 point curve); 20 ng/mL interferon gamma, ~18 hour; Griess detection; n=2-3 in duplicates. The method in brief: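 Mouse RAW 264.7 macrophages pre-treated 2 h at 37 °C with compound (3 μM to 0.3 nM, 10 points; DMSO ≤1%), then stimulated with 20 ng/mL interferon gamma for ~18 h. Supernatant nitrite measured by Griess reaction, absorbance 520–550 nm. IC50 from curve fit of signal normalised to IFNγ alone, mean n=2-3 in duplicate.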
As for `COc1ccc([C@]23C=C(C#N)C(=O)[C@@H](C)[C@@H]2CCc2c(-c4ccc(-c5ccn[nH]5)cc4)nc(C)nc23)cc1` [Example 80, (6aS,7S,10aR)-10a-(4-methoxyphenyl)-2,7-dimethyl-8-oxo-4-[4-(1H-pyrazol-5-yl)phenyl]-5,6,6a,7,8,10a-hexahydrobenzo[h]quinazoline-9-carbonitrile], the pIC50 is 8.13.
The value for `Cc1nc(-c2ccc(-c3[nH]ncc3Br)cc2)c2c(n1)[C@@]1(c3ccc(F)cc3)C=C(C#N)C(=O)[C@@H](C)[C@@H]1CC2` [Example 81, (6aS,7S,10aR)-4-[4-(4-bromo-1H-pyrazol-5-yl)phenyl]-10a-(4-fluorophenyl)-2,7-dimethyl-8-oxo-5,6,6a,7,8,10a-hexahydrobenzo[h]quinazoline-9-carbonitrile] was 7.46; that for `C[C@@H]1C(=O)C(C#N)=C[C@]2(c3ccc(F)cc3)c3nn(C(=O)CN)cc3CC[C@@H]12` [Example 82, (5aS,6S,9aR)-9a-(4-fluorophenyl)-2-glycyl-6-methyl-7-oxo-4,5,5a,6,7,9a-hexahydro-2H-benzo[g]indazole-8-carbonitrile] was 7.50; that for `Cc1nc(-c2ccc(-c3ccn[nH]3)cc2)c2c(n1)[C@@]1(c3ccc(F)cc3)C=C(C#N)C(=O)[C@@H](C)[C@@H]1CC2` [Example 83, (6aS,7S,10aR)-10a-(4-fluorophenyl)-2,7-dimethyl-8-oxo-4-[4-(1H-pyrazol-5-yl)phenyl]-5,6,6a,7,8,10a-hexahydrobenzo[h]quinazoline-9-carbonitrile] was 7.79.
Turning to `C[C@@H]1C(=O)C(C#N)=C[C@]2(c3ccccc3)c3nc(-c4cnccn4)ncc3CC[C@@H]12` [Example 84, (6aS,7S,10aR)-7-methyl-8-oxo-10a-phenyl-2-(pyrazin-2-yl)-5,6,6a,7,8,10a-hexahydrobenzo[h]quinazoline-9-carbonitrile], the pIC50 is 8.17.
The value for `C[C@@H]1C(=O)C(C#N)=C[C@]2(c3ccccc3)c3nc(C(C)(C)C)ncc3CC[C@@H]12` [Example 85, (6aS,7S,10aR)-2-tert-butyl-7-methyl-8-oxo-10a-phenyl-5,6,6a,7,8,10a-hexahydrobenzo[h]quinazoline-9-carbonitrile] was 7.47.
Turning to `C[C@@H]1C(=O)C(C#N)=C[C@]2(c3ccccc3)c3n[nH]c(-c4cccnc4)c3CC[C@@H]12` [Example 86, (5aS,6S,9aR)-6-methyl-7-oxo-9a-phenyl-3-(pyridin-3-yl)-4,5,5a,6,7,9a-hexahydro-2H-benzo[g]indazole-8-carbonitrile], the pIC50 was 8.40.
As to `C[C@@H]1C(=O)C(C#N)=C[C@]2(c3ccccc3)c3n[nH]c(-c4cncnc4)c3CC[C@@H]12` [Example 87, (5aS,6S,9aR)-6-methyl-7-oxo-9a-phenyl-3-(pyrimidin-5-yl)-4,5,5a,6,7,9a-hexahydro-2H-benzo[g]indazole-8-carbonitrile], the pIC50 was 8.38.
As for `C[C@@H]1C(=O)C(C#N)=C[C@]2(c3ccccc3)c3n[nH]c(-c4cccc(O)c4)c3CC[C@@H]12` [Example 88, (5aS,6S,9aR)-3-(3-hydroxyphenyl)-6-methyl-7-oxo-9a-phenyl-4,5,5a,6,7,9a-hexahydro-2H-benzo[g]indazole-8-carbonitrile], the pIC50 is 7.70.
Take `C[C@@H]1C(=O)C(C#N)=C[C@]2(c3ccccc3)c3n[nH]c(-c4cnn(C)c4)c3CC[C@@H]12` [Example 89, (5aS,6S,9aR)-6-methyl-3-(1-methyl-1H-pyrazol-4-yl)-7-oxo-9a-phenyl-4,5,5a,6,7,9a-hexahydro-2H-benzo[g]indazole-8-carbonitrile]: the pIC50 was 8.09.
In the case of `COc1ccc([C@]23C=C(C#N)C(=O)[C@@H](C)[C@@H]2CCc2c(-c4ccc5[nH]cnc5c4)nc(C)nc23)cc1` [Example 90, (6aS,7S,10aR)-4-(1H-benzimidazol-5-yl)-10a-(4-methoxyphenyl)-2,7-dimethyl-8-oxo-5,6,6a,7,8,10a-hexahydrobenzo[h]quinazoline-9-carbonitrile], the pIC50 was 8.14.
As to `Cc1nc(-c2ccc3[nH]cnc3c2)c2c(n1)[C@@]1(c3ccc(F)cc3)C=C(C#N)C(=O)[C@@H](C)[C@@H]1CC2` [Example 91, (6aS,7S,10aR)-4-(1H-benzimidazol-5-yl)-10a-(4-fluorophenyl)-2,7-dimethyl-8-oxo-5,6,6a,7,8,10a-hexahydrobenzo[h]quinazoline-9-carbonitrile], the pIC50 is 7.87.
The value for `Cc1nc(-c2cccc3c(Br)n[nH]c23)c2c(n1)[C@@]1(c3ccc(F)cc3)C=C(C#N)C(=O)[C@@H](C)[C@@H]1CC2` [Example 92, (6aS,7S,10aR)-4-(3-bromo-1H-indazol-7-yl)-10a-(4-fluorophenyl)-2,7-dimethyl-8-oxo-5,6,6a,7,8,10a-hexahydrobenzo[h]quinazoline-9-carbonitrile] was 7.50; that for `Cc1nc(-c2cccc3cn[nH]c23)c2c(n1)[C@@]1(c3ccc(F)cc3)C=C(C#N)C(=O)[C@@H](C)[C@@H]1CC2` [Example 93, (6aS,7S,10aR)-10a-(4-fluorophenyl)-4-(1H-indazol-7-yl)-2,7-dimethyl-8-oxo-5,6,6a,7,8,10a-hexahydrobenzo[h]quinazoline-9-carbonitrile] was 8.14.
Consider `Cc1nc(-c2c[nH]c(=O)[nH]c2=O)c2c(n1)[C@@]1(c3ccc(F)cc3)C=C(C#N)C(=O)[C@@H](C)[C@@H]1CC2` [Example 94, (6aS,7S,10aR)-4-(2,4-dioxo-1,2,3,4-tetrahydropyrimidin-5-yl)-10a-(4-fluorophenyl)-2,7-dimethyl-8-oxo-5,6,6a,7,8,10a-hexahydrobenzo[h]quinazoline-9-carbonitrile], for which the pIC50 is 6.19.
For the compound `C[C@@H]1C(=O)C(C#N)=C[C@]2(c3cccc(C(=O)Nc4ccccc4)c3)c3ncncc3CC[C@@H]12` [Example 95, 3-[(6aS,7S,10aR)-9-cyano-7-methyl-8-oxo-6,6a,7,8-tetrahydrobenzo[h]quinazolin-10a(5H)-yl]-N-phenylbenzamide], the pIC50 was 7.81.
Regarding `CCCNC(=O)c1cccc([C@]23C=C(C#N)C(=O)[C@@H](C)[C@@H]2CCc2cncnc23)c1` [Example 96, 3-[(6aS,7S,10aR)-9-cyano-7-methyl-8-oxo-6,6a,7,8-tetrahydrobenzo[h]quinazolin-10a(5H)-yl]-N-propylbenzamide], the negative-log IC50 (pIC50) was 7.11.
Take `C[C@@H]1C(=O)C(C#N)=C[C@]2(c3ccccc3)c3nn(C)c(-c4ccnnc4)c3CC[C@@H]12` [Example 97, (5aS,6S,9aR)-2,6-dimethyl-7-oxo-9a-phenyl-3-(pyridazin-4-yl)-4,5,5a,6,7,9a-hexahydro-2H-benzo[g]indazole-8-carbonitrile]: the pIC50 is 7.82.
Regarding `COC(=O)n1cc(-c2nc(C)nc3c2CC[C@H]2[C@H](C)C(=O)C(C#N)=C[C@]32c2ccccc2)cn1` [Example 98, methyl 4-[(6aS,7S,10aR)-9-cyano-2,7-dimethyl-8-oxo-10a-phenyl-5,6,6a,7,8,10a-hexahydrobenzo[h]quinazolin-4-yl]-1H-pyrazole-1-carboxylate], the pIC50 is 8.82.
Consider `COC(=O)c1cccc([C@]23C=C(C#N)C(=O)[C@@H](C)[C@@H]2CCc2cnc(-c4ccccc4)nc23)c1` [Example 99, methyl 3-[(6aS,7S,10aR)-9-cyano-7-methyl-8-oxo-2-phenyl-6,6a,7,8-tetrahydrobenzo[h]quinazolin-10a(5H)-yl]benzoate], for which the pIC50 is 7.63.
On to `C[C@@H]1C(=O)C(C#N)=C[C@]2(c3cccc(C(=O)O)c3)c3nc(-c4ccccc4)ncc3CC[C@@H]12` [Example 100, 3-[(6aS,7S,10aR)-9-cyano-7-methyl-8-oxo-2-phenyl-6,6a,7,8-tetrahydrobenzo[h]quinazolin-10a(5H)-yl]benzoic acid], for which the negative logarithm of the IC50 (pIC50) was 6.37.
Take `COC(=O)c1ccc(-c2ncc3c(n2)[C@@]2(c4cccc(C(=O)OC)c4)C=C(C#N)C(=O)[C@@H](C)[C@@H]2CC3)cc1` [Example 101, methyl 3-[(6aS,7S,10aR)-9-cyano-2-[4-(methoxycarbonyl)phenyl]-7-methyl-8-oxo-6,6a,7,8-tetrahydrobenzo[h]quinazolin-10a(5H)-yl]benzoate]: the pIC50 is 7.34.
In the case of `COc1nc(Cl)nc2c1CC[C@H]1[C@H](C)C(=O)C(C#N)=C[C@]21c1ccccc1` [Example 102, (6aS,7S,10aR)-2-chloro-4-methoxy-7-methyl-8-oxo-10a-phenyl-5,6,6a,7,8,10a-hexahydrobenzo[h]quinazoline-9-carbonitrile], the pIC50 was 8.40.
The value for `COc1nc(OC)c2c(n1)[C@@]1(c3ccccc3)C=C(C#N)C(=O)[C@@H](C)[C@@H]1CC2` [Example 103, (6aS,7S,10aR)-2,4-dimethoxy-7-methyl-8-oxo-10a-phenyl-5,6,6a,7,8,10a-hexahydrobenzo[h]quinazoline-9-carbonitrile] was 8.36; that for `C[C@@H]1C(=O)C(C#N)=C[C@]2(c3cccc(C(=O)O)c3)c3nc(-c4ccc(C(=O)O)cc4)ncc3CC[C@@H]12` [Example 104, 3-[(6aS,7S,10aR)-2-(4-carboxyphenyl)-9-cyano-7-methyl-8-oxo-6,6a,7,8-tetrahydrobenzo[h]quinazolin-10a(5H)-yl]benzoic acid] was 6.03.
The value for `C[C@@H]1C(=O)C(C#N)=C[C@]2(c3ccccc3)C3=NN(C)[C@@H](c4ccccc4)[C@H]3CC[C@@H]12` [Example 105, (3R,3aR,5aS,6S,9aR)-2,6-dimethyl-7-oxo-3,9a-diphenyl-3,3a,4,5,5a,6,7,9a-octahydro-2H-benzo[g]indazole-8-carbonitrile] was 7.46.
As for `C[C@@H]1C(=O)C(C#N)=C[C@]2(c3ccccc3)c3n[nH]c(-c4ccc(N)nc4)c3CC[C@@H]12` [Example 106, (5aS,6S,9aR)-3-(6-aminopyridin-3-yl)-6-methyl-7-oxo-9a-phenyl-4,5,5a,6,7,9a-hexahydro-2H-benzo[g]indazole-8-carbonitrile], the pIC50 was 8.06.
